Experimental findings from ChEMBL document CHEMBL3352133, “Antimalarial chemotherapy: orally curative artemisinin-derived trioxane dimer esters” (Bioorg Med Chem Lett, 2015) are described below.

For data set [1], the system named is Plasmodium berghei. Nature of the data set: Antimalarial activity Plasmodium berghei ANKA infected in C57BL/6J mouse assessed as mouse survival at 6 mg/kg, po administered as single dose combined with 18 mg/kg mefloquine hydrochloride. The data set is classed as functional.
Data set [2] relates to Plasmodium berghei. The data set can be described thus: Antimalarial activity Plasmodium berghei ANKA infected in C57BL/6J mouse assessed as suppression of parasitemia at 6 mg/kg, po administered as single dose combined with 18 mg/kg mefloquine hydrochloride measured on day 3 after innfection. The data set is classed as functional.
The test system of data set [3] is Plasmodium. The data set can be described thus: Antimalarial activity Plasmodium. Type of data set: functional.
A short description of data set [4]: Lipophilicity, logP of the compound. The data set is classed as physicochemical. Particulars: octanol/water.
Data set [5] in a line: Stability in pH 2 in acetonitrile and water at 37 degC. The data set is classed as physicochemical. To be noted: acetonitrile and water at pH 2, pH 2; read-out: Stability (converted).

A value given as a limit tells only on which side of the number the result lay.

With `C[C@H]1[C@@H](CC(CO)C[C@H]2O[C@@H]3O[C@@]4(C)CC[C@H]5[C@H](C)CC[C@@H]([C@H]2C)[C@@]35OO4)O[C@@H]2O[C@@]3(C)CC[C@H]4[C@H](C)CC[C@@H]1[C@@]24OO3` (stereo not given in full), the Survival in data set [1] was determined as 26 days. Further, the Activity in data set [2] was over 99.9%.
Take `C[C@H]1[C@@H](CC(COC(=O)c2ccncc2)C[C@H]2O[C@@H]3O[C@@]4(C)CC[C@H]5[C@H](C)CC[C@@H]([C@H]2C)[C@@]35OO4)O[C@@H]2O[C@@]3(C)CC[C@H]4[C@H](C)CC[C@@H]1[C@@]24OO3`: the IC50 (usually the midpoint of a concentration-inhibition curve) in data set [3] is 1.7 nM. Further, in data set [1], the Survival turned out to be 24.3 days. In addition, the Activity in data set [2] is recorded as over 99.9%. For the same molecule, the log partition coefficient (logP) (usually the decadic logarithm of the partition coefficient of the neutral form, usually between octanol and water) in data set [4] (read-out: logP) was 7.8.
Consider `C[C@H]1[C@@H](CC(COC(=O)c2ccnc(Cl)c2Cl)C[C@H]2O[C@@H]3O[C@@]4(C)CC[C@H]5[C@H](C)CC[C@@H]([C@H]2C)[C@@]35OO4)O[C@@H]2O[C@@]3(C)CC[C@H]4[C@H](C)CC[C@@H]1[C@@]24OO3`, for which the Survival in data set [1] amounted to 26 days. Also, in data set [2], the Activity is reported as over 99.9%. This molecule also returned a logP in data set [4] of 9.2.
In the same order, the values of `C[C@H]1[C@@H](CC(COC(=O)c2cc(Cl)nc(Cl)c2)C[C@H]2O[C@@H]3O[C@@]4(C)CC[C@H]5[C@H](C)CC[C@@H]([C@H]2C)[C@@]35OO4)O[C@@H]2O[C@@]3(C)CC[C@H]4[C@H](C)CC[C@@H]1[C@@]24OO3` are 25.8 days, over 99.9% and 9.5.
Turning to `Cc1cc(C(=O)OCC(C[C@H]2O[C@@H]3O[C@@]4(C)CC[C@H]5[C@H](C)CC[C@@H]([C@H]2C)[C@@]35OO4)C[C@H]2O[C@@H]3O[C@@]4(C)CC[C@H]5[C@H](C)CC[C@@H]([C@H]2C)[C@@]35OO4)cc(Cl)n1`, the Survival in data set [1] amounted to 28.5 days. In addition, the Activity in data set [2] is over 99.9%. Further, in data set [4], the logP is recorded as 9.5.
In the case of `Cc1cc(C(=O)OCC(C[C@H]2O[C@@H]3O[C@@]4(C)CC[C@H]5[C@H](C)CC[C@@H]([C@H]2C)[C@@]35OO4)C[C@H]2O[C@@H]3O[C@@]4(C)CC[C@H]5[C@H](C)CC[C@@H]([C@H]2C)[C@@]35OO4)cc(C)n1`, in data set [1], the Survival worked out at 25.8 days. The Activity in data set [2] is over 99.9%. For the same molecule, in data set [4] (read-out: logP), the logP was 8.1.
With `C[C@H]1[C@@H](CC(COC(=O)c2cc(F)nc(F)c2)C[C@H]2O[C@@H]3O[C@@]4(C)CC[C@H]5[C@H](C)CC[C@@H]([C@H]2C)[C@@]35OO4)O[C@@H]2O[C@@]3(C)CC[C@H]4[C@H](C)CC[C@@H]1[C@@]24OO3`, in data set [1], the Survival was 23.5 days. Moreover, the Activity in data set [2] is given as over 99.9%. Further, the logP in data set [4] (read-out: logP) was found to be 8.9.
On to `C[C@H]1[C@@H](CC(COC(=O)c2cc(F)cc(F)c2)C[C@H]2O[C@@H]3O[C@@]4(C)CC[C@H]5[C@H](C)CC[C@@H]([C@H]2C)[C@@]35OO4)O[C@@H]2O[C@@]3(C)CC[C@H]4[C@H](C)CC[C@@H]1[C@@]24OO3`, for which the Survival in data set [1] came out at 29 days. The Activity in data set [2] is listed as over 99.9%. The same molecule gave a log partition coefficient (logP) in data set [4] of 9.3.
Turning to `C[C@H]1[C@@H](CC(COC(=O)c2cc(Cl)cc(Cl)c2)C[C@H]2O[C@@H]3O[C@@]4(C)CC[C@H]5[C@H](C)CC[C@@H]([C@H]2C)[C@@]35OO4)O[C@@H]2O[C@@]3(C)CC[C@H]4[C@H](C)CC[C@@H]1[C@@]24OO3`, the Survival in data set [1] came to 30 days. In addition, the Activity in data set [2] is over 99.9%. Moreover, in data set [5], the half-life was 96 h. The molecule also gave a logP in data set [4] of 10.2.
Consider `C[C@H]1[C@@H](CC(COC(=O)c2ccc(Cl)nc2Cl)C[C@H]2O[C@@H]3O[C@@]4(C)CC[C@H]5[C@H](C)CC[C@@H]([C@H]2C)[C@@]35OO4)O[C@@H]2O[C@@]3(C)CC[C@H]4[C@H](C)CC[C@@H]1[C@@]24OO3`, for which the Survival in data set [1] was 30 days. Further, in data set [2], the Activity is recorded as over 99.9%. Further, in data set [5], the half-life is 96 h. This molecule also showed a logP in data set [4] of 9.5.
With `CO[C@H]1O[C@@H]2O[C@@]3(C)CC[C@H]4[C@H](C)CC[C@@H]([C@H]1C)[C@@]24OO3` [ARTEMETHER], the Survival in data set [1] worked out at 20.8 days. For the same molecule, the Activity in data set [2] is over 99.9%.
`C[C@@H]1CC[C@H]2[C@@H](C)C(=O)O[C@@H]3O[C@@]4(C)CC[C@@H]1[C@]32OO4` [ARTEMISININ] had an IC50 in data set [3] of 9 nM.
